Assay results reported in paper PMC9798004 (Frontiers in Psychiatry, 2022).

How the values were obtained:
Assay in all cases: PathHunter β-arrestin assay
Format in all cases: cell-based
PRLHR = molecular target: T1, PRLHR (Homo sapiens, UniProt P49683); settings: screen, control agonist; CHO, 37C, 2HR
T1 construct: purchased Eurofins DiscoverX (PathHunter gpcrMAX)
T1 sequence (P49683 1-370): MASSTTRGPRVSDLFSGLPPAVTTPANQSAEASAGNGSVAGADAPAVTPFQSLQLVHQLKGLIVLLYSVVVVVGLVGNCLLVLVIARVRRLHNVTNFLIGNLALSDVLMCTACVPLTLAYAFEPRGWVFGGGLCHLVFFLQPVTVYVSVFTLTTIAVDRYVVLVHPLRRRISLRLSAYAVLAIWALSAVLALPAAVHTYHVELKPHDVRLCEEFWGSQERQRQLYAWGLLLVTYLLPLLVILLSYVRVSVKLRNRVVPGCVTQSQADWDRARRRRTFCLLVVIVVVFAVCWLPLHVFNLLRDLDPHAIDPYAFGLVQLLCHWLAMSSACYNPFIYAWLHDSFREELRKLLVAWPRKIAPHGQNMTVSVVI

SSTR3 = molecular target: T2, SSTR3 (Homo sapiens, UniProt P32745); settings: screen, control agonist; CHO, 37C, 2HR
T2 construct: purchased Eurofins DiscoverX (PathHunter gpcrMAX)
T2 sequence (P32745 whole entry): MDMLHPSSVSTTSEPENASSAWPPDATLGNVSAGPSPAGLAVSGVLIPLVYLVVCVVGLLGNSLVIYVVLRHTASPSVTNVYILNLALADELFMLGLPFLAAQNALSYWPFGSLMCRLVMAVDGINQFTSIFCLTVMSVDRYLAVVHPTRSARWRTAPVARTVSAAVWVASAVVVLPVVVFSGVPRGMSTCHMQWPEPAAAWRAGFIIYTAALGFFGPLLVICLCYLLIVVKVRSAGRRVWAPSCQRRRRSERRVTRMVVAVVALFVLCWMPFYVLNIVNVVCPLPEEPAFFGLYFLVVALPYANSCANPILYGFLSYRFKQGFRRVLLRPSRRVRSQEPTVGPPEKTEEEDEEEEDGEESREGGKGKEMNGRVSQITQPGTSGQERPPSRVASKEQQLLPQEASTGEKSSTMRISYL

PTAFR = molecular target: T3, PTAFR (Homo sapiens, UniProt P25105); settings: screen, control agonist; CHO, 37C, 2HR
T3 construct: purchased Eurofins DiscoverX (PathHunter gpcrMAX)
T3 sequence (P25105 whole entry): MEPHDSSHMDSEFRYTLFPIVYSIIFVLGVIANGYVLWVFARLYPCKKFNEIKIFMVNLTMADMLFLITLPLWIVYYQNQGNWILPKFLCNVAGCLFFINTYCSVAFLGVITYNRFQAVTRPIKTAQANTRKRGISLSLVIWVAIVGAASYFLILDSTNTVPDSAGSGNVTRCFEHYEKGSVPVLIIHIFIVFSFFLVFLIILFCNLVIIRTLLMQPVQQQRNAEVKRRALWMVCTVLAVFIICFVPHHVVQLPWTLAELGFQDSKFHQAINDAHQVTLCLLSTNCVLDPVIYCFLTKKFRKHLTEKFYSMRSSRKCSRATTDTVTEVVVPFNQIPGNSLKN

P2RY11 = molecular target: T4, P2RY11 (Homo sapiens, UniProt Q96G91); settings: screen, control agonist; CHO, 37C, 2HR
T4 construct: purchased Eurofins DiscoverX (PathHunter gpcrMAX)
T4 sequence (Q96G91 whole entry, one chain of several): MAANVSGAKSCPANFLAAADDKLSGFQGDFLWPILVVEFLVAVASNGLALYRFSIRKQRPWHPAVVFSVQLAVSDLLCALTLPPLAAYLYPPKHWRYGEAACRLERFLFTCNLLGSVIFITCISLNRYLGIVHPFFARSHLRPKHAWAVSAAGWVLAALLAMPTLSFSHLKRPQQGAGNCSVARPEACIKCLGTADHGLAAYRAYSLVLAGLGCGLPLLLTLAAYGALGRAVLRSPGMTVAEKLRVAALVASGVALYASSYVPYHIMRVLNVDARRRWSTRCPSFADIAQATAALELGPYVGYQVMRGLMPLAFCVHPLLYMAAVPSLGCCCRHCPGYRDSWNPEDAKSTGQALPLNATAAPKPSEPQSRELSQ

NPY1R = molecular target: T5, NPY1R (Homo sapiens, UniProt P25929); settings: screen, control agonist; CHO, RT, 2HR
T5 construct: purchased Eurofins DiscoverX (PathHunter gpcrMAX)
T5 sequence (P25929 1-384): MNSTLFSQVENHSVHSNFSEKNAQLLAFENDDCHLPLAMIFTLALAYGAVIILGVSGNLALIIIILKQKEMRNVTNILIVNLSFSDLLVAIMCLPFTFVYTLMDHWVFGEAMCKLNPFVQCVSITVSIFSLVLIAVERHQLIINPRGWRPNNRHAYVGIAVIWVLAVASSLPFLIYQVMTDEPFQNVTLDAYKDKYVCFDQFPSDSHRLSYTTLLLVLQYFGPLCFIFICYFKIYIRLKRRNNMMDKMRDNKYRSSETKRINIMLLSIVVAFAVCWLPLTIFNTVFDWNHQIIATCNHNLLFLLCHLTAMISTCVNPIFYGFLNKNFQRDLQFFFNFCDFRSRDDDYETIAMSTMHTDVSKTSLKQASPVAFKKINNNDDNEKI

TBXA2R = molecular target: T6, TBXA2R (Homo sapiens, UniProt P21731); settings: screen, control agonist; U2OS, 37C, 2HR
T6 construct: purchased Eurofins DiscoverX (PathHunter gpcrMAX)
T6 sequence (P21731 whole entry): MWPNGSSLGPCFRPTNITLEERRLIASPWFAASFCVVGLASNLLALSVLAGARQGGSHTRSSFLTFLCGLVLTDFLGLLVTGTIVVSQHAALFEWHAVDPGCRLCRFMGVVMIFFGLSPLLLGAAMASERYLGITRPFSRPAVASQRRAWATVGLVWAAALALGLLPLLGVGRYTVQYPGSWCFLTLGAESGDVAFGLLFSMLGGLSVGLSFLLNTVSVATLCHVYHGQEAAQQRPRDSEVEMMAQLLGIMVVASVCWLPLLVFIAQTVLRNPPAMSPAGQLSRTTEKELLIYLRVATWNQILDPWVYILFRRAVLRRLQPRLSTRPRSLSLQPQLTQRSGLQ

P2RY6 = P2RY6 (Homo sapiens, UniProt Q15077); settings: screen, control agonist; CHO, 37C, 2HR
P2RY6, sequence (Q15077 whole entry): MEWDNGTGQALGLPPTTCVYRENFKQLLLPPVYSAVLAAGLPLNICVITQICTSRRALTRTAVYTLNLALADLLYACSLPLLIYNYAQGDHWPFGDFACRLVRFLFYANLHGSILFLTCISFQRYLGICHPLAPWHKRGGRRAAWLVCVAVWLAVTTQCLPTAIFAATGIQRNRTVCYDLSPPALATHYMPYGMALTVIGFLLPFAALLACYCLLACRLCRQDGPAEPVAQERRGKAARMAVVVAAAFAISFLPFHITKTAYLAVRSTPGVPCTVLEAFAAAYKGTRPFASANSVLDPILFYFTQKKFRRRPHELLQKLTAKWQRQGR
Protocol: Follow up experiments were prioritized based on the difference between S/N and CoV. Targets with a >5-fold difference between S/N and CoV were investigated for their potential contribution to the AMB-FUBINACA toxidrome with 10-point concentration-response curves generated in technical replicate (range 1.5–30 μM) using the EC80 of the relevant agonist, where applicable in antagonist mode. Simultaneous agonist and antagonist curves were run in parallel to ensure reliability of the assay (see Supplementary Table 2), with both RC50 and signal to background aligning with historical averages, and Z' >0.5. RC50 was estimated using a four-parameter fit (CBIS Data Analysis Suite, ChemInnovation, San Diego, CA) on normalized data.

P2RY2 = molecular target: T7, P2RY2 (Homo sapiens, UniProt P41231); settings: screen, control agonist; U2OS, 37C, 2HR
T7 construct: purchased Eurofins DiscoverX (PathHunter gpcrMAX)
T7 sequence (P41231 whole entry): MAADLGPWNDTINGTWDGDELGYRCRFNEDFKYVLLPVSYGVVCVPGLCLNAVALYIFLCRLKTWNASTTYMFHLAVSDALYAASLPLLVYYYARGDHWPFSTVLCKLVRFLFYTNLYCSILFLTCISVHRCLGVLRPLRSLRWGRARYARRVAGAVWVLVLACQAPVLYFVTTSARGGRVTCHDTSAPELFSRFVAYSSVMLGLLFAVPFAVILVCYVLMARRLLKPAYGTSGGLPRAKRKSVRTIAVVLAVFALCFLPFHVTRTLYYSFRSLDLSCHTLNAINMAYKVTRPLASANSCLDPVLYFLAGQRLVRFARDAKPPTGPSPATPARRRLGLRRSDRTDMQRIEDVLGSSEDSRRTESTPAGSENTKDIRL

P2RY4 = molecular target: T8, P2RY4 (Homo sapiens, UniProt P51582); settings: screen, control agonist; CHO, 37C, 2HR
T8 construct: purchased Eurofins DiscoverX (PathHunter gpcrMAX)
T8 sequence (P51582 whole entry): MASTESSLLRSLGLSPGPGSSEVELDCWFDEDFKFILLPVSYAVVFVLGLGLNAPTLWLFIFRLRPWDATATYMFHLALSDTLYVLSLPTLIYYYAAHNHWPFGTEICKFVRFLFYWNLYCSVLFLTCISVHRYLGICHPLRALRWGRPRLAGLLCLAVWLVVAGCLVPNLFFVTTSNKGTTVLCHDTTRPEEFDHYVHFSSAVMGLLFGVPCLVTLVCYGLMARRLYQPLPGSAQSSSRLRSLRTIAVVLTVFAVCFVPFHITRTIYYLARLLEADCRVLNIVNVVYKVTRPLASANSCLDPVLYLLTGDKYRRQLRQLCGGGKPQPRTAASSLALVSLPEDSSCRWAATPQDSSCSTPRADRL

OXER1 = molecular target: T9, OXER1 (Homo sapiens, UniProt Q8TDS5); settings: screen, control agonist; CHO, RT, 2HR
T9 construct: purchased Eurofins DiscoverX (PathHunter gpcrMAX)
T9 sequence (Q8TDS5 whole entry): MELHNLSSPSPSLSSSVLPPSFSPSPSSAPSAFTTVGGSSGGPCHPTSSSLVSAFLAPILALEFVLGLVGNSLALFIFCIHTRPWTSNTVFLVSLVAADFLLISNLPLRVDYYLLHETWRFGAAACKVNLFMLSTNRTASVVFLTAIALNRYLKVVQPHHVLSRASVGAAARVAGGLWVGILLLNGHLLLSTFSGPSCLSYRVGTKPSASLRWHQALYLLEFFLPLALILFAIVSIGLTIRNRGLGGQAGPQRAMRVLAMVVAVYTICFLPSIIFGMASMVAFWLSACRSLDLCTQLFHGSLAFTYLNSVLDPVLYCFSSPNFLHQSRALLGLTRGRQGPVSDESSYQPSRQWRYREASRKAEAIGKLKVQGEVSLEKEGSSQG

C5AR1 = molecular target: T10, C5AR1 (Homo sapiens, UniProt P21730); settings: screen, control agonist; CHO, RT, 2HR
T10 construct: purchased Eurofins DiscoverX (PathHunter gpcrMAX)
T10 sequence (P21730 1-350): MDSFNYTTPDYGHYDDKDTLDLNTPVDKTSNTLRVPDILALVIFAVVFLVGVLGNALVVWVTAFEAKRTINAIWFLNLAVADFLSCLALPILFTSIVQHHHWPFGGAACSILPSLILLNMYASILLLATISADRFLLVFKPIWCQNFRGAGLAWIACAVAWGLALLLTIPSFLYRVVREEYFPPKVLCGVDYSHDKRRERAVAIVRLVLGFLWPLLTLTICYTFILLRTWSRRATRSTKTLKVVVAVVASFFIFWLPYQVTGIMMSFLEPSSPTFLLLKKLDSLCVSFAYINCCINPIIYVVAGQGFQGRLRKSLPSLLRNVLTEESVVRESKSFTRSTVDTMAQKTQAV

C5L2 = molecular target: T11, C5L2 (Homo sapiens, UniProt Q9P296); settings: screen, control agonist; CHO, 37C, 2HR
T11 construct: purchased Eurofins DiscoverX (PathHunter gpcrMAX)
T11 sequence (Q9P296 whole entry): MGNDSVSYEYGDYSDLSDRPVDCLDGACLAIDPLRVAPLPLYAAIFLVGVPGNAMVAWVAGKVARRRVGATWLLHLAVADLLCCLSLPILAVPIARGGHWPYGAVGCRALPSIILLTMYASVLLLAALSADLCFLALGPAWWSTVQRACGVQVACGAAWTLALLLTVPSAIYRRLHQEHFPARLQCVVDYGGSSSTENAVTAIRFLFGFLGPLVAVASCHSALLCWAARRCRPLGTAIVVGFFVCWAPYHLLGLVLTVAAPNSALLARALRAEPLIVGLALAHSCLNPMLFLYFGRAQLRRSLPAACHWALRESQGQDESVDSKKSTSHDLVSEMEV

PROKR1 = molecular target: T12, PROKR1 (Homo sapiens, UniProt Q8TCW9); settings: screen, control agonist; CHO, 37C, 2HR
T12 construct: purchased Eurofins DiscoverX (PathHunter gpcrMAX)
T12 sequence (Q8TCW9 whole entry): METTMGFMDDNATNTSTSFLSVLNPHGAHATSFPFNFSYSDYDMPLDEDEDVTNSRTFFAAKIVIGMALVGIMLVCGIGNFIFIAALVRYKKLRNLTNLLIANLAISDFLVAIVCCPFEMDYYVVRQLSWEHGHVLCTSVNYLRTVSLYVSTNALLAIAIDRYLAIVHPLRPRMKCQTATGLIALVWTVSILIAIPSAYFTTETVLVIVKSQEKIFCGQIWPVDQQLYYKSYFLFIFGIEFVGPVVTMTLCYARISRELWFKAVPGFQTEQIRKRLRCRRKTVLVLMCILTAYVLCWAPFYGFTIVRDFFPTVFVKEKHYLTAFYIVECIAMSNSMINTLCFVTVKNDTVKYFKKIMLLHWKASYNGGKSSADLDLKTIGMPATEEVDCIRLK

PROKR2 = molecular target: T13, PROKR2 (Homo sapiens, UniProt Q8NFJ6); settings: screen, control agonist; CHO, 37C, 2HR
T13 construct: purchased Eurofins DiscoverX (PathHunter gpcrMAX)
T13 sequence (Q8NFJ6 whole entry): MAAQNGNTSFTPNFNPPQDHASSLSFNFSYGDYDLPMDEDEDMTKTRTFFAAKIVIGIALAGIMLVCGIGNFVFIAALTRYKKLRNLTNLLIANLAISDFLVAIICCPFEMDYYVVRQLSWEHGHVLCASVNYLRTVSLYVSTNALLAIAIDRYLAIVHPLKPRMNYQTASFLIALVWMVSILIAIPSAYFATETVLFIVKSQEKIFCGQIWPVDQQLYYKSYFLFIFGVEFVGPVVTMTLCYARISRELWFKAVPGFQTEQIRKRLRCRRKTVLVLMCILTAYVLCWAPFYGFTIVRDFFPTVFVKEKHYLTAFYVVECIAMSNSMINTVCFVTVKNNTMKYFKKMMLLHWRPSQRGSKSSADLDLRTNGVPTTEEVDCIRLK

Work on PrRP-31 yielded an EC80 (PRLHR) of 0.0018 µM.

With Tyr-SST 14 the EC80 (SSTR3) was 0.0542 µM.

Work on `CCCCCCCCCCCCCCCCOC[C@H](COP(=O)([O-])OCC[N+](C)(C)C)OC(C)=O` [PAF] yielded an EC80 (PTAFR) of 0.019 µM.

`Nc1ncnc2c1ncn2[C@@H]1O[C@H](COP(=O)(O)OP(=O)(O)OP(=O)(O)O)[C@@H](O)[C@H]1O` [ATP] showed an EC80 (P2RY11) of 1290 µM.

Work on Peptide YY: control agonist yielded an EC80 (NPY1R) of 0.00418 µM.

`O=C(O)CCC/C=C\C[C@@H]1[C@@H](/C=C/[C@@H](O)COc2ccc(I)cc2)[C@H]2CC[C@@H]1O2` [I-BOP] gave an EC80 (TBXA2R) of 0.0291 µM.

With `O=c1ccn([C@@H]2O[C@H](COP(=O)(O)OP(=O)(O)OP(=O)(O)O)[C@@H](O)[C@H]2O)c(=O)[nH]1` [UTP] the EC80 (P2RY6) was 0.225 µM, the EC80 (P2RY2) was 2.58 µM and the EC80 (P2RY4) was 0.93 µM.

Molecule `CCCCC/C=C\C/C=C\C/C=C\C=C\C(=O)CCCC(=O)O` [5-OxoETE] has an EC80 (OXER1) of 2.13 µM.

B1: Complement C5a: control agonist (protein, UniProt P01031 678-751, looked up)
C5a anaphylatoxin: TLQKKIEEIAAKYKHSVVKKCCYDGACVNNDETCEQRAARISLGPRCIKAFTECCVVASQLRANISHKDMQLGR
modifications: C5a anaphylatoxin
notes: control agonist
With B1 the EC80 (C5AR1) was 0.0036 µM and the EC80 (C5L2) was 0.0027 µM.

B2: EG VEGF: control agonist for PROKR1 and PROKR2 (protein, UniProt P58294 20-105, looked up)
Prokineticin-1: AVITGACERDVQCGAGTCCAISLWLRGLRMCTPLGREGEECHPGSHKVPFFRKRKHHTCPCLPNLLCSRFPDGRYRCSMDLKNINF
Work on B2 yielded an EC80 (PROKR1) of 0.0533 µM and an EC80 (PROKR2) of 0.0302 µM.
